Measured values from patent US20120029187A1, “HALOALKYLSULFONANILIDE DERIVATIVE” (Nissan Chemical Industries, Ltd., priority 2009, published 2012).

Key:
Type in all cases: in vivo
[1] = tested on: transplanted rice; test: Test Example 1: preemergence treatment under submerged conditions, effect on crop; settings: dose 2.52 g/a
Method in brief: (§1)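 Weed seeds and 2.5-leaf rice seedlings shared each flooded cup of alluvial soil. Dosing, expressed as g per are, was by pouring water-diluted emulsifiable concentrate onto the surface on sowing day. Mortality was graded 0 to 5 after three weeks' growth.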

[2] = tested on: water foxtail; test: Test Example 4: herbicidal effect in foliage treatment; settings: dose 6.3 g/a, three weeks after application
Method in brief: (§2)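 Seeds were spot-sown in boxes of sterilized diluvial soil and raised in a greenhouse (25 to 30° C) for 14 days before a single foliar application. Compounds were applied as emulsifiable concentrates diluted with water, at predetermined doses in g/a. Injury was graded three weeks post-spray.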

[3] = tested on: common chickweed; test: as above; settings: dose 6.3 g/a, three weeks after application
Method in brief: as §2

[4] = tested on: common ragweed; test: as above; settings: dose 6.3 g/a, three weeks after application
Method in brief: as §2

[5] = tested on: wild oat; test: as above; settings: dose 6.3 g/a, three weeks after application
Method in brief: as §2

[6] = tested on: Italian ryegrass; test: as above; settings: dose 6.3 g/a, three weeks after application
Method in brief: as §2

[7] = tested on: giant foxtail; test: as above; settings: dose 6.3 g/a, three weeks after application
Method in brief: as §2

[8] = tested on: beadstraw; test: as above; settings: dose 6.3 g/a, three weeks after application
Method in brief: as §2

[9] = tested on: common lambsquater; test: as above; settings: dose 6.3 g/a, three weeks after application
Method in brief: as §2

[10] = tested on: redroot pigweed; test: as above; settings: dose 6.3 g/a, three weeks after application
Method in brief: as §2

[11] = tested on: barnyardgrass; test: as above; settings: dose 6.3 g/a, three weeks after application
Method in brief: as §2

[12] = tested on: large crabgrass; test: as above; settings: dose 6.3 g/a, three weeks after application
Method in brief: as §2

[13] = tested on: bulrush; test: Test Example 2: herbicidal effects during the vegetation period under submerged conditions; settings: treatment during the vegetation period under submerged conditions; dose 2.52 g/a
Method in brief: (§3)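 Barnyardgrass, bulrush and ducksalad were co-sown in alluvial soil flooded to 4 cm and grown in a greenhouse at 25 to 30° C. At the 1- or 2-leaf stage, water-diluted emulsifiable concentrates went onto the water surface at set doses (g/a). Herbicidal effect was scored three weeks later on a graded scale.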

[14] = tested on: ducksalad; test: as above; settings: treatment during the vegetation period under submerged conditions; dose 2.52 g/a
Method in brief: as §3

[15] = tested on: barnyardgrass; test: as above; settings: treatment during the vegetation period under submerged conditions; dose 2.52 g/a
Method in brief: as §3

[16] = tested on: bulrush; test: Test Example 1: herbicidal effects in preemergence treatment under submerged conditions; settings: dose 2.52 g/a
Method in brief: as §1

[17] = tested on: ducksalad; test: as above; settings: dose 2.52 g/a
Method in brief: as §1

[18] = tested on: barnyardgrass; test: as above; settings: dose 2.52 g/a
Method in brief: as §1

[19] = tested on: water foxtail; test: Test Example 3: herbicidal effects in soil treatment; settings: dose 6.3 g/a
Method in brief: (§4)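 Seeds were sown in sterilized diluvial soil and covered with about 1.5 cm of soil. Compounds, formulated as emulsifiable concentrates and diluted with water, were sprayed evenly over the soil surface at set doses in g/a. Herbicidal effect was scored on a rating scale three weeks later.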

[20] = tested on: common ragweed; test: as above; settings: dose 6.3 g/a
Method in brief: as §4

[21] = tested on: wild oat; test: as above; settings: dose 6.3 g/a
Method in brief: as §4

[22] = tested on: Italian ryegrass; test: as above; settings: dose 6.3 g/a
Method in brief: as §4

[23] = tested on: giant foxtail; test: as above; settings: dose 6.3 g/a
Method in brief: as §4

[24] = tested on: common lambsquater; test: as above; settings: dose 6.3 g/a
Method in brief: as §4

[25] = tested on: redroot pigweed; test: as above; settings: dose 6.3 g/a
Method in brief: as §4

[26] = tested on: barnyardgrass; test: as above; settings: dose 6.3 g/a
Method in brief: as §4

[27] = tested on: large crabgrass; test: as above; settings: dose 6.3 g/a
Method in brief: as §4

CC1CC(=O)N(Cc2ccccc2N(C(=O)c2ccccc2)S(=O)(=O)C(F)(F)F)CO1 (stereo not drawn) [II-6]
a: transplanted rice, effect on crop (evaluation scale 0-5) [1]: 0 (mortality of less than 5% (almost ineffective))
G: water foxtail, herbicidal effect [2]: 5 (mortality of 90% or above (nearly complete death))
N: common chickweed, herbicidal effect [3]: 1 (mortality of at least 5% and less than 20%)
J: common ragweed, herbicidal effect [4]: 5 (mortality of 90% or above (nearly complete death))
F: wild oat, herbicidal effect [5]: 0 (mortality of less than 5% (almost ineffective))
H: Italian ryegrass, herbicidal effect [6]: 3 (mortality of at least 40% and less than 70%)
E: giant foxtail, herbicidal effect [7]: 4 (mortality of at least 70% and less than 90%)
O: beadstraw, herbicidal effect [8]: 2 (mortality of at least 20% and less than 40%)
L: common lambsquater, herbicidal effect [9]: 1 (mortality of at least 5% and less than 20%)
K: redroot pigweed, herbicidal effect [10]: 0 (mortality of less than 5% (almost ineffective))
A: barnyardgrass, herbicidal effect [11]: 5 (mortality of 90% or above (nearly complete death))
D: large crabgrass, herbicidal effect [12]: 4 (mortality of at least 70% and less than 90%)
B: bulrush, herbicidal effect (evaluation scale 0-5) [13]: 5 (mortality of 90% or above (nearly complete death))
C: ducksalad, herbicidal effect (evaluation scale 0-5) [14]: 4 (mortality of at least 70% and less than 90%)
A: barnyardgrass, herbicidal effect (evaluation scale 0-5) [15]: 5 (mortality of 90% or above (nearly complete death))
B: bulrush, herbicidal effect (evaluation scale 0-5) [16]: 5 (mortality of 90% or above (nearly complete death))
C: ducksalad, herbicidal effect (evaluation scale 0-5) [17]: 5 (mortality of 90% or above (nearly complete death))
A: barnyardgrass, herbicidal effect (evaluation scale 0-5) [18]: 5 (mortality of 90% or above (nearly complete death))
G: water foxtail, herbicidal effect (evaluation scale 0-5) [19]: 5 (mortality of 90% or above (nearly complete death))
J: common ragweed, herbicidal effect (evaluation scale 0-5) [20]: 4 (mortality of at least 70% and less than 90%)
F: wild oat, herbicidal effect (evaluation scale 0-5) [21]: 0 (mortality of less than 5% (almost ineffective))
H: Italian ryegrass, herbicidal effect (evaluation scale 0-5) [22]: 3 (mortality of at least 40% and less than 70%)
E: giant foxtail, herbicidal effect (evaluation scale 0-5) [23]: 4 (mortality of at least 70% and less than 90%)
L: common lambsquater, herbicidal effect (evaluation scale 0-5) [24]: 3 (mortality of at least 40% and less than 70%)
K: redroot pigweed, herbicidal effect (evaluation scale 0-5) [25]: 0 (mortality of less than 5% (almost ineffective))
A: barnyardgrass, herbicidal effect (evaluation scale 0-5) [26]: 5 (mortality of 90% or above (nearly complete death))
D: large crabgrass, herbicidal effect (evaluation scale 0-5) [27]: 4 (mortality of at least 70% and less than 90%)
